Tests used:
HCC827GR cells [1] = assay: IC50 analysis via alamarBlue assay, HCC827GR versus HCC827; assay type: cell-based
[2] = tested on: HCC827GR/tet-on control cells; assay: Xenograft assay with doxycycline; assay type: in vivo, nude mice; conditions: daily oral Dox for 30 days
Protocol: FIG. 13 illustrates VGF as a therapeutic target. (FIG. 13A) Q-PCR (left) analysis for VGF expression and clonogenic assay (right) in HCC827GR/tet-on control cells. […] (FIG. 13B) Xenograft assay for assessing the effect of doxycycline treatment on tumor growth. HCC827GR/tet-on control cells were injected subcutaneously into nude mice. 32 days after cancer cell injection, mice were treated with or without daily oral doxycycline (Dox) for another 30 days. Tumor volume was monitored over time as indicated (left). Tumor weight was measured after harvest (upper right). The representative photographs illustrate tumor growth 30 days after Dox or normal saline treatment (lower right). ns means no significant (n=6 mice/group). (FIG. 13C) Q-PCR (left) analysis for VGF expression and clonogenic assay (right) in HCC827GR/tet-on shVGF cells in which shVGF was induced by doxycycline (Dox). […] HCC827GR/tet-on-shVGF cells were injected subcutaneously into nude mice. 32 days after cancer cell injection, mice were treated with or without daily oral doxycycline (Dox) for another 30 days. Tumor volume was monitored over time as indicated (left). Tumor weight was measured after harvest (upper right). The representative photographs illustrate tumor growth 30 days after Dox or normal saline treatment (lower right). Scale bar, 1 mm. Error bars indicate the SEM (n=6 mice/group; *P<0.05). […]

[3] = tested on: lung adenocarcinoma harboring EGFR mutations (exon 19 deletions or the L858R mutation); conditions: References 5 to 10; cited from earlier work
[4] = tested on: HCC827GR cells infected with shVGF; assay: alamarBlue cell viability assay after VGF knockdown; assay type: cell-based; conditions: HCC827GR cells with VGF-silencing, gefitinib 3 days, FIG. 3F
Description: FIG. 3 illustrates expression of VGF in EGFR-TKI resistant lung cancer cells. […] Tubulin served as a loading control. (FIG. 3B) Q-PCR analysis (left) for measuring the expression of VGF in HCC827GR-2, an independently selected EGFR-TKI resistant HCC827 pool, versus and HCC827 cells. Tubulin served as a loading control. Gene expression analysis (right) for VGF expression in HCC827 and EGFR-TKI resistant clones (ER3 and T15-2) from the database of GSE38310. (FIG. 3C) Gene expression analysis for VGF expression in different subtypes of lung cancer cell lines from the database of […] (CCLE). SCLC: small cell lung cancer; ADC: adenocarcinoma; SCC: squamous cell carcinoma. […] (FIG. 3E) Q-PCR analysis (left) and western blotting (right) for measuring VGF expression in HCC827GR cells infected with lentiviral vectors encoding shVGF (shVGF) or scrambled control (SC). shVGF#1 and shVGF#2 target different regions in VGF mRNA.
To identify genes involved in EGFR-TKI resistance and EMT in lung adenocarcinoma, a gene expression profiling assay followed by Q-PCR analysis were performed in HCC827GR versus HCC827 cells (FIG. 3A, upper). […] . […] Consistently, the expression of VGF was elevated in the independently isolated TKI resistance HCC827 cells (FIGS. 3B and 10). […] The inventors further examined VGF levels in cell lines derived from different subtypes of lung cancer. […] .

HCC827GR cells [5] = assay: Western blot of apoptosis markers (activated caspase 3, cleaved PARP); assay type: cell-based; conditions: gefitinib 1 μM, 24 hr
HEK293T cells = assay: Clonogenic analysis of VGF mutants under low serum stress; assay type: cell-based; conditions: transfected HEK293T cells, DMEM with 1% FBS, 10 days
Description: FIG. 18 illustrates effect of VGF mutants on low serum stress. (FIG. 18A) Schematic representation of VGF deletion mutations (FIG. 18B) A table summarizing clonogenic analysis of HEK293T cells transfected with expression vector encoding empty control (Ctrl), full-length VGF cDNA (VGF), or truncated VGF cDNA as described in the FIG. 18A under the growth of DMEM supplement with 1% FBS for 10 days.
The effect of VGF mutants on low serum stress was examined (FIG. 18). Clonogenic analysis of HEK293T cells transfected with expression vector encoding empty control, full-length VGF cDNA, or truncated VGF cDNA under the growth of DMEM supplement with 1% FBS for 10 days were summarized in FIG. 18B.

With `C=CC(=O)Nc1cc(Nc2nccc(-c3cn(C)c4ccccc34)n2)c(OC)cc1N(C)CCN(C)C` [AZD9291] the “IC50 analysis (EGFR-TKI resistance)” value (HCC827GR cells [1]) was “resistance”.

In the case of `C[C@H]1c2cccc(O)c2C(=O)C2=C(O)[C@]3(O)C(=O)C(C(N)=O)=C(O)[C@@H](N(C)C)[C@@H]3[C@@H](O)[C@@H]21` [Dox, doxycycline], the tumor growth [2] is reported as “no effect”.

For `C#Cc1cccc(Nc2ncnc3cc(OCCOC)c(OCCOC)cc23)c1` [erlotinib], the therapeutic response [3] is listed as “profound therapeutic responses”.

In the case of `COc1cc2ncnc(Nc3ccc(F)c(Cl)c3)c2cc1OCCCN1CCOCC1` [gefitinib], the “cell viability (sensitivity to gefitinib)” value [4] is reported as “sensitive” and the “expression of activated caspase 3 and PARP (apoptosis)” value (HCC827GR cells [5]) is reported as “resistant to gefitinib-induced apoptosis”.

B1: VGF 1-615: full length VGF, expressed from full-length VGF cDNA vector (protein, UniProt O15240 1-615, looked up)
chain: MKALRLSASALFCLLLINGLGAAPPGRPEAQPPPLSSEHKEPVAGDAVPGPKDGSAPEVRGARNSEPQDEGELFQGVDPRALAAVLLQALDRPASPPAPSGSQQGPEEEAAEALLTETVRSQTHSLPAPESPEPAAPPRPQTPENGPEASDPSEELEALASLLQELRDFSPSSAKRQQETAAAETETRTHTLTRVNLESPGPERVWRASWGEFQARVPERAPLPPPAPSQFQARMPDSGPLPETHKFGEGVSSPKTHLGEALAPLSKAYQGVAAPFPKARRPESALLGGSEAGERLLQQGLAQVEAGRRQAEATRQAAAQEERLADLASDLLLQYLLQGGARQRGLGGRGLQEAAEERESAREEEEAEQERRGGEERVGEEDEEAAEAEAEAEEAERARQNALLFAEEEDGEAGAEDKRSQEETPGHRRKEAEGTEEGGEEEDDEEMDPQTIDSLIELSTKLHLPADDVVSIIEEVEEKRKRKKNAPPEPVPPPRAAPAPTHVRSPQPPPPAPAPARDELPDWNEVLPPWDREEDEVYPPGPYHPFPNYIRPRTLQPPSALRRRHYHHALPPSRHYPGREAQARRAQEEAEAEERRLQEQEELENYIEHVLLRRP
modifications: full-length
notes: full length VGF, expressed from full-length VGF cDNA vector
In the case of B1, the “cell survival in clonogenic analysis” value (HEK293T cells) is reported as “survived”.

Reference: US20180100153A1, “Method and kit for use in inhiiting tumor progression, predicting or determining tumor progression state in VGF expressing cancers” (Truebio LLC, priority 2016, published 2018)
